Results reported in patent publication US10774096B2, “4-substituted benzoxaborole compounds and uses thereof” (GLAXOSMITHKLINE INTELLECTUAL PROPERTY (NO.2) LIMITED, priority 2015, dated 2020).
pIC50: −log10 of the molar value. ≈ marks a conversion by molar mass, not a printed value. Where “and” joins values, the source holds several entries; their conditions need not be identical. Equal values may be shown once. Where a name gives a salt, the structure may show the parent alone. Read-outs that look alike come from different tables or passages of the source.

Experiments:
P. aeruginosa PA01 = assay: General antimicrobial activity assay (CLSI broth microdilution), MIC; assay type: cell-based
Protocol: (§1) Whole-cell antimicrobial activity was determined by broth microdilution using the Clinical and Laboratory Standards Institute (CLSI) recommended procedure, Document M7-A7, “Methods for Dilution Susceptibility Tests for Bacteria that Grow Aerobically”.
(§2) Table 1 provides MIC values against bacterial strains K12; E. coli K12 tolC/Tn10; A. baumannii ATCC 17978; and P. aeruginosa PA01 for comparator compounds (C1-C15) shown in Table 4 and for G26-CH3. […] Similarly, compound G26-CH3 (Example 2) has poor activity against these Gram negative bacteria.

A. baumannii ATCC 17978 = assay: as above; assay type: cell-based
Protocol: as §1, §2

E. coli K12 = assay: as above; assay type: cell-based
Protocol: as §1, §2

HepG2 cells = assay: HepG2 cytotoxicity assay (resazurin, 48 h); assay type: cell-based, human
Protocol: HepG2 cells (HB-8065) were fed fresh medium (Essential Minimum Eagle Medium, EMEM, supplemented with 5% fetal calf serum and 2 mM L-glutamine) the day before subculturing the plates. On the day of plate seeding, a cell suspension of 100,000 cells/mL in culture medium was prepared. Cell suspension (100 uL) was added in each well of a black 96-well microplate with clear bottom, collagen coated, (Becton Dickinson) except in column 11, that was dispensed only 100 uL of culture medium. The plates were incubated for 24 h. It was made up a range of 10 doses of test substances by preparing serial dilutions 1:2 from the stock solution in 100% DMSO and made a dilution of 1:200 of each dose in medium, to achieve a final concentration of 0.5% of DMSO. After 24 h, culture medium was removed from the plate and 150 uL of test compound dilutions were added in two replicates and 150 uL of 0.5% DMSO in culture medium to columns 11 and 12 (blank control). Plates were incubated for 48 and at 37° C., 5% CO2, 95% relative humidity. The medium was then removed and 200 uL of fresh culture medium was added and 50 uL of Resazurin solution to each well and incubated for 1 h and a half. Plates were removed from incubator to allow the fluorescence to stabilise at room temperature protected from light for 15 min. For read out of viability of cells we used Resazurine (BDH). Resazurin is used as an oxidation-reduction indicator that yields a colorimetric change and a fluorescent signal in response to metabolic activity. As cell grows, metabolic activity results in a chemical reduction of Resazurin indicated by a change from non-fluorescent blue to the reduced fluorescent pink form. The degree of Resazurin fluorescence is therefore, an indicator of the number of viable cells in the culture system. Fluorescence was measured at an excitation wavelength of 515 nm and an emission wavelength of 590 nm in a Microplate reader 1420 Multilabel HTS counter, Victor 2, (Wallac).
The fluorescence value of each well is corrected by subtracting the background value (average of column 11) from the absolute value. The percentages of inhibition are calculated relatively to the DMSO control wells (average of column 12). For each compound, the average value of the duplicate samples is calculated and the curve is fitted to Sigmoidal dose-response (variable slope) nonlinear regression curve adjustment (GraphPad) in order to calculate the IC50 (Tox50).

Mtb H37Rv = assay: MIC determination against mycobacteria (resazurin); assay type: cell-based, M. tuberculosis; conditions: for MIC: Mycobacterium tuberculosis, read-out: Mtb H37Rv MIC (B); for Selectivity Index (A/B): HepG2 Tox50 (A) / Mtb H37Rv MIC (B)
S. aureus ATCC 29213 = assay: General antimicrobial activity assay (CLSI broth microdilution), MIC; assay type: cell-based; design: unit not given beside the values
Protocol: as §1

Human cyto LeuRS = Human cyto LeuRS (Homo sapiens, UniProt Q9P2J5); assay: LeuRS aminoacylation assay, IC50 determination; assay type: biochemical; conditions: tRNA from Brewer's Yeast
E. coli K12 tolC::Tn10 = assay: General antimicrobial activity assay (CLSI broth microdilution), MIC; assay type: cell-based; conditions: efflux pump deficient E. coli
Protocol: as §1, §2

S. pneumoniae ATCC 6301 = assay: as above; assay type: cell-based
Protocol: as §1

[1] = test system: mammalian cellular protein synthesis; assay: Inhibition of protein synthesis in mammalian cells; assay type: cell-based
[2] = test system: pathogenic Gram negative bacteria; assay: General antimicrobial activity assay, summary in words for the panel; assay type: cell-based
Protocol: as §1, §2

Mtb LeuRS = Mtb LeuRS (Mycobacterium tuberculosis, UniProt P9WFV1); assay: LeuRS aminoacylation assay, IC50 determination; assay type: biochemical, M. tuberculosis
Protocol: For biochemical analyses an N-terminal six histidine-tagged LeuRS was over-expressed in Escherichia coli which were E. coli codon-optimised (GenScript, Piscataway N.J., USA), from human mitochondria and cytoplasm, and M. tuberculosis. N-terminal six histidine-tagged LeuRS proteins were over-expressed and purified according to Novagen (Madison, Wis., USA) using an E. coli BL21(DE3) T7 RNA polymerase over-expression strain.
Experiments were performed in 96-well microtiter plates, using 80 μL reaction mixtures containing 50 mM HEPES-KOH (pH 8.0), 30 mM MgCl2 30 mM KCl, 13 μM L-[^14C]leucine (306 mCi/mmol, Perkin-Elmer), 15 uM total E. coli tRNA (Roche, Switzerland), 0.02% (w/v) BSA, 1 mM DTT, 0.2 μM LeuRS and 4 mM ATP at 30° C. Reactions were started by the addition of 4 mM ATP. After 7 minutes, reactions were quenched and tRNA was precipitated by the addition of 50 μL of 10% (w/v) TCA and transferred to 96-well nitrocellulose membrane filter plates (Millipore Multiscreen HTS, MSHAN4B50). Each well was then washed three times with 100 μL of 5% TCA. Filter plates were then dried under a heat lamp and the precipitated L-[^14C]leucine tRNALeu were quantified by liquid scintillation counting using a Wallac MicroBeta Trilux model 1450 liquid scintillation counter (PerkinElmer, Waltham, Mass., USA). The only difference was with the human cytoplasmic LeuRS when we used tRNA isolated from Brewer's Yeast (Roche Diagnostics GmbH).
Reactions were initiated by the addition of 4 mM ATP. Reactions were stopped after 7 minutes then precipitated and counted to quantify radioactivity. IC50 values were determined using the Graphpad Prism software package (Graphpad Software Inc. (La Jolla, Calif., USA).

[3] = M. tuberculosis standard strain H37Rv

Human cyto LeuRS, sequence (Q9P2J5 whole entry): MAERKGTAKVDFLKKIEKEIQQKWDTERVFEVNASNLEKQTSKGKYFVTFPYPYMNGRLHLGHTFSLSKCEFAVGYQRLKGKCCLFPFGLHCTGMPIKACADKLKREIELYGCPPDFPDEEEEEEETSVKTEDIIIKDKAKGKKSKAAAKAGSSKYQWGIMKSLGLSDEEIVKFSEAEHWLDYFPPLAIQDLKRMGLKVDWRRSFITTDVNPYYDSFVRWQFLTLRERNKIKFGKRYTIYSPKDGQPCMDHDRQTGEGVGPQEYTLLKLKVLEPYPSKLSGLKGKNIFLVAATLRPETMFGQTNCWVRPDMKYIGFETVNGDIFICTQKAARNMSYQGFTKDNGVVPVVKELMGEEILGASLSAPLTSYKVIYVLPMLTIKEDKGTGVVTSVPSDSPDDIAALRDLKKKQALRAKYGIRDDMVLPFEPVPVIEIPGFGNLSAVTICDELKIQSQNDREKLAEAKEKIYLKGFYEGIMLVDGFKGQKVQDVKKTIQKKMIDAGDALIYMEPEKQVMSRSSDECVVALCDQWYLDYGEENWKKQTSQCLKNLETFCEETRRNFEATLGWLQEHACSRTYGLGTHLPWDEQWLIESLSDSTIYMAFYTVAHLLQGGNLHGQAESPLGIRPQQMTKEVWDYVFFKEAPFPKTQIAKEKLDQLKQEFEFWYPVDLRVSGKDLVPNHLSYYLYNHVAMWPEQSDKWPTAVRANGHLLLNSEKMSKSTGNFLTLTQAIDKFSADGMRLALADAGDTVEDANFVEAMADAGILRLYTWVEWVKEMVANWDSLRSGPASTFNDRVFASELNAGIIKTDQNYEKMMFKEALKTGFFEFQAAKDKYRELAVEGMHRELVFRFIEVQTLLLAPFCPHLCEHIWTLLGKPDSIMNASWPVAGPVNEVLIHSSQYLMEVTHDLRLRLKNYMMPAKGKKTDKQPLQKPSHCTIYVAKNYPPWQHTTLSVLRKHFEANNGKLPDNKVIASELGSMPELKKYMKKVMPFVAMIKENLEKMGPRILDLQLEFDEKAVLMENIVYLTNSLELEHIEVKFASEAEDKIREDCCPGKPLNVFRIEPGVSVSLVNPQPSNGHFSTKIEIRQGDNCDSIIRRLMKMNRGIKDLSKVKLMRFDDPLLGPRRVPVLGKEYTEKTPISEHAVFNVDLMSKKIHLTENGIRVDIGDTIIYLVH
Mtb LeuRS, sequence (P9WFV1 whole entry): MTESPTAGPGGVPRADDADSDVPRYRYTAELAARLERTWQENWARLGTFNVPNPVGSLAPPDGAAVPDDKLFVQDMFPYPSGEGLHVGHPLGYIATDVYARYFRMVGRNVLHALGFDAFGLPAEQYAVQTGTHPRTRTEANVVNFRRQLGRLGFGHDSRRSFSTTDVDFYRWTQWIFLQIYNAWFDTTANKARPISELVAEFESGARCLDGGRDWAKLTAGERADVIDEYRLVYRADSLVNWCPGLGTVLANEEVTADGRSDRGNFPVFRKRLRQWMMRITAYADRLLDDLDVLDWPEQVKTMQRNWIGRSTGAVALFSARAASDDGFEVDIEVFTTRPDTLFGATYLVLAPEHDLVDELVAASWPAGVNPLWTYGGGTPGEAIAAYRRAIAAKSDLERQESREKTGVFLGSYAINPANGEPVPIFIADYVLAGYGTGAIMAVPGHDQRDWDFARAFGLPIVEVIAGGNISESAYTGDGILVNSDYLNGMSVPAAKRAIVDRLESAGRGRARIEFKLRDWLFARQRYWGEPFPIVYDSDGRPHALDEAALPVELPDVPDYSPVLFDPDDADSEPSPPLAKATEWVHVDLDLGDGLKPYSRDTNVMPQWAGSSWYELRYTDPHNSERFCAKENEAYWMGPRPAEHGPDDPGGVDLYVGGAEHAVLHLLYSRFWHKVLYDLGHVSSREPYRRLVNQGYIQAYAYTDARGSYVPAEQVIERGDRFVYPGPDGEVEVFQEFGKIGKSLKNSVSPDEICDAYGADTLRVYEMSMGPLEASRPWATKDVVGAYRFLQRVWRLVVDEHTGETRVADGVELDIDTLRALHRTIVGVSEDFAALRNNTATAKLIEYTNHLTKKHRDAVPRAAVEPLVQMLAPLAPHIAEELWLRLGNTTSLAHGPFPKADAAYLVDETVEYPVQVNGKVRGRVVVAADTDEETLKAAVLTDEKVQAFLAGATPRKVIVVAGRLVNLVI

NCC1OB2OCCOc3cccc1c32 (racemic) [Example C2-H]
MIC: P. aeruginosa PA01 (P. aeruginosa PA01): 2 µg/mL (≈ 9.76 µM) | MIC: A. baumannii ATCC 17978 (A. baumannii ATCC 17978): 2 µg/mL (≈ 9.76 µM) | MIC: E. coli K12 (E. coli K12): 2 µg/mL (≈ 9.76 µM) | HepG2 cell 48 h Tox50 (A) (HepG2 cells; human): >50 µM | MIC (Mtb H37Rv; H37RV): 1.88 µM (≈ 0.385 µg/mL)

Cc1ccc2c3c1[C@@H](CN)OB3OCCO2 [Example 2, (S)-(3-methyl-7,8-dihydro-2H-1,6,9-trioxa-9a-borabenzo[cd]azulen-2-yl)methanamine]
MIC S. aureus ATCC 29213 (S. aureus ATCC 29213): >64 | pIC50 (Human cyto LeuRS): 3.77 | MIC: E. coli K12 tolC::Tn10 (E. coli K12 tolC::Tn10): >64 µg/mL | MIC: P. aeruginosa PA01 (P. aeruginosa PA01): >64 µg/mL | MIC: A. baumannii ATCC 17978 (A. baumannii ATCC 17978): >64 µg/mL | MIC: E. coli K12 (E. coli K12): >64 µg/mL | MIC: S. pneumoniae ATCC 6301 (S. pneumoniae ATCC 6301): >64 | impact on mammalian cellular protein synthesis [1]: low impact | pIC50 ([1]; mammalian cells, read-out: Cell Prot Syn IC50): < 3.22 | activity against Gram negative bacteria [2]: poor activity | HepG2 cell 48 h Tox50 (A) (HepG2 cells; human): 971 µM | Selectivity Index (A/B) (Mtb H37Rv; listed as Example 2 G26-CH3): 4853 and > 4850 | MIC (Mtb H37Rv; H37RV): 0.2 µM (≈ 0.0438 µg/mL) | pIC50 (Mtb LeuRS): 6.28 | activity against leucyl tRNA synthetase from M. tuberculosis (Mtb LeuRS): good activity

NC[C@H]1OB2OCCOc3ccc(-c4ccccc4)c1c32 [Example 3, (S)-(3-phenyl-7,8-dihydro-2H-1,6,9-trioxa-9a-borabenzo[cd]azulen-2-yl)methanamine hydrochloride]
MIC (Mtb H37Rv; H37RV): 8.75 µM | pIC50 (Mtb LeuRS; read-out: Mtb LeuRS IC50): 4.92

NC[C@H]1OB2OCCOc3ccc(-c4cccs4)c1c32 [Example 4, (S)-(3-(thiophen-2-yl)-7,8-dihydro-2H-1,6,9-trioxa-9a-borabenzo[cd]azulen-2-yl)methanamine]
MIC (Mtb H37Rv; H37RV): 40.1 µM (≈ 11.5 µg/mL) | pIC50 (Mtb LeuRS; read-out: Mtb LeuRS IC50): 3.52

c1cc2c3c(c1)OCCOB3OC2 [Example C1-H]
MIC (Mtb H37Rv; [3]): 31 µM (≈ 5.46 µg/mL)

NCCOc1cccc2c1B(O)OC2 [Example C3-H]
HepG2 cell 48 h Tox50 (A) (HepG2 cells): >50 µM | Selectivity Index (A/B) (Mtb H37Rv): >0.8 | MIC (Mtb H37Rv; [3]): 62 µM (≈ 12 µg/mL)

CCOc1ccc(Br)c2c1B(O)O[C@@H]2CN [Example C4-Br]
pIC50 (Human cyto LeuRS): 4.14 and 4.17 | HepG2 cell 48 h Tox50 (A) (HepG2 cells): 32 µM | Selectivity Index (A/B) (Mtb H37Rv): 320 | MIC (Mtb H37Rv; [3]): 0.1 µM (≈ 0.0286 µg/mL)

CCOc1cccc2c1B(O)O[C@@H]2CN [Example C5-H]
HepG2 cell 48 h Tox50 (A) (HepG2 cells): 1.8 µM | Selectivity Index (A/B) (Mtb H37Rv): 3 | MIC (Mtb H37Rv; [3]): 0.6 µM (≈ 0.124 µg/mL)

CCOc1ccc(Cl)c2c1B(O)O[C@@H]2CN [Example C6-Cl]
HepG2 cell 48 h Tox50 (A) (HepG2 cells): 36.3 µM | Selectivity Index (A/B) (Mtb H37Rv): 363 | MIC (Mtb H37Rv; [3]): 0.1 µM (≈ 0.0241 µg/mL)

CC1COc2c(Cl)cc(Cl)c3c2B(O1)OC3CN (centres unmarked) [Example C7-Cl2]
HepG2 cell 48 h Tox50 (A) (HepG2 cells; human): >50 µM | Selectivity Index (A/B) (Mtb H37Rv): >20 | MIC (Mtb H37Rv; H37RV): 2.5 µM (≈ 0.72 µg/mL)

CC1(C)COc2c(Cl)ccc3c2B(OC3CN)O1 (centres unmarked) [Example C8-Cl]
HepG2 cell 48 h Tox50 (A) (HepG2 cells; human): >50 µM | Selectivity Index (A/B) (Mtb H37Rv): 10

CC1(C)COB2OC(CN)c3c(Cl)ccc(c32)O1 (centres unmarked) [Example C9-Cl]
HepG2 cell 48 h Tox50 (A) (HepG2 cells; human): >50 µM | Selectivity Index (A/B) (Mtb H37Rv): >10 | Selectivity Index (A/B) (Mtb H37Rv; listed as C9-CI): 10 | MIC (Mtb H37Rv; H37RV): 5 µM (≈ 1.34 µg/mL)

CC1(C)COB2OC(CN)c3cccc(c32)O1 (centres unmarked) [Example C10-H]
HepG2 cell 48 h Tox50 (A) (HepG2 cells; human): >50 µM | Selectivity Index (A/B) (Mtb H37Rv): 10

CC1COc2cccc3c2B(O1)OC3CN (centres unmarked) [Example C11-H]
MIC: P. aeruginosa PA01 (P. aeruginosa PA01): 2 µg/mL (≈ 9.13 µM) | MIC: A. baumannii ATCC 17978 (A. baumannii ATCC 17978): 4 µg/mL (≈ 18.3 µM) | MIC: E. coli K12 (E. coli K12): 2 µg/mL (≈ 9.13 µM) | HepG2 cell 48 h Tox50 (A) (HepG2 cells; human): > 50 µM | HepG2 cell 48 h, percentage in brackets beside Tox50 (HepG2 cells; meaning of bracket not explained): 40% | MIC (Mtb H37Rv; H37RV): 1.56 µM (≈ 0.342 µg/mL)

CC1(C)COc2cccc3c2B(OC3CN)O1 (centres unmarked) [Example C12-H]
MIC: P. aeruginosa PA01 (P. aeruginosa PA01): 16 µg/mL (≈ 68.6 µM) | MIC: A. baumannii ATCC 17978 (A. baumannii ATCC 17978): 4 µg/mL (≈ 17.2 µM) | MIC: E. coli K12 (E. coli K12): 4 µg/mL (≈ 17.2 µM) | HepG2 cell 48 h Tox50 (A) (HepG2 cells; human): 24.5 µM

NC[C@H]1OB2OCCOc3c(Cl)ccc1c32 [Example C13-Cl]
HepG2 cell 48 h Tox50 (A) (HepG2 cells; human): >50 µM | Selectivity Index (A/B) (Mtb H37Rv): >10 | MIC (Mtb H37Rv; H37RV): 5 µM (≈ 1.2 µg/mL) | pIC50 (Mtb LeuRS; read-out: Mtb LeuRS IC50): 5.67

NC[C@H]1OB2OCCOc3c(Cl)cc(Cl)c1c32 [Example C14-Cl2]
HepG2 cell 48 h Tox50 (A) (HepG2 cells; human): >50 µM | Selectivity Index (A/B) (Mtb H37Rv): >10
